For assay [1], the system named is collagen contained within the vascular tissue. The experiment in a line: Short-term application of catechin to vascular tissue. The conditions noted are these: short-term (approximately 10-30 minute) application. The text has this:
Catechin can be delivered in solution form into the mural thrombus. This delivery method pathway can be used, without limitation, when a short-acting application of a high-concentration of catechin is desired. […] In some embodiments, the concentration of the agent can be in the range from approximately 0.01% to approximately 20%, or between approximately 2.0% and approximately 10.0%, or to or from any values within these ranges.

Another assay relates to skin collagen. The conditions noted are these: rats treated with catechin; cited from earlier work.

The text below walks through data of US20100261662A1, “UTILIZATION OF MURAL THROMBUS FOR LOCAL DRUG DELIVERY INTO VASCULAR TISSUE” (ENDOLOGIX, INC., priority 2009, published 2010).

For the substance catechin, the “stabilization of collagen in vascular tissue” value in assay [1] was “can stabilize the collagen”. In addition, in the assay on skin collagen, the “stability of skin collagen against enzymatic degradation” value is reported as “stable against enzymatic degradation”.
